Reference: patent publication US12673918B2, “Small molecule RPN13 inhibitors with antitumor properties” (The Johns Hopkins University, priority 2019, dated 2026)

What was measured:
HS578T = conditions: human
NF-κB = conditions: 293T cells stably expressing NFkB-Luc reporter; previously observed (13); read-out: IC50 of NF-κB signaling inhibition; cited from earlier work
[1] = tested on: proteasome (4UbFL reporter); experiment: 4UbFL proteasome reporter, transfected 293T cells; type: cell-based; conditions: 4 hours
Description: FIG. 9A illustrates 293T cells in 96 well plates transiently transected with the 4UbFL plasmid and 48 hr later treated with the indicated doses of each compound for 4 hr. Cells were lysed and luciferase activity assessed using a luminometer.
To monitor proteasome activity in living cells, a construct was used expressing a fusion protein comprising four tandem repeats of ubiquitin fused in frame with firefly luciferase (4UbFL) (41) to cause this otherwise stable reporter protein to undergo rapid proteolytic degradation via the proteasome. To assess their capacity to inhibit cellular proteasome function, 293T cells were transiently transfected with the 4UbFL construct and then […] treated with compounds for 4 hours prior to assay of luciferase activity. Like bortezomib, RA375 induced a dramatic increase in bioluminescence, consistent with stabilization of 4UbFL, in a dose dependent manner. At very high concentrations the luciferase activity dropped because of cellular toxicity.
Reporter assays: Sub-confluent cultures of cells were transfected with 4Ub-FL or FL plasmid using TransIT 2020 reagent (Minis Bio). […] Luciferase activity in cell lysate was determined with a luciferase assay kit (Promega) according to the manufacturer's instructions. Bioluminescence was measured by using a Glomax Multidetection system (Promega).

With C[C@H]1/C(=C\c2ccc([N+](=O)[O-])cc2)C(=O)/C(=C/c2ccc([N+](=O)[O-])cc2)CN1C(=O)[C@@H](N)Cc1ccccc1 the IC50 (HS578T) was 40 nM.

In the case of N[C@@H](Cc1ccccc1)C(=O)N1C/C(=C\c2ccc([N+](=O)[O-])cc2)C(=O)/C(=C/c2ccc([N+](=O)[O-])cc2)C1 [RA183, reference compound], the IC50 (NF-κB) is listed as 100 nM.

For O=C(CCl)N[C@@H](Cc1ccccc1)C(=O)N1C/C(=C\c2ccc([N+](=O)[O-])cc2)C(=O)/C(=C/c2ccc([N+](=O)[O-])cc2)C1 [RA375], the “fold more potent than RA190 (4UbFL stabilization)” value [1] was 4 fold and the “fold more potent than bortezomib (4UbFL stabilization)” value [1] was 2 fold.
